According to patent publication US5900250A, “Monoglyceride/lactate ester permeation enhancer for oxybutnin” (ALZA Corporation, priority 1998, dated 1999):
Each block holds one compound with its values, some of them ahead of it.

What was measured:
[1] = solubility of glycerol monolaurate in lauryl lactate / EVA 40; type: physicochemical; details: for Wt % GML in solution: based on GML solubility of 350 mg/g
Excerpt: The unexpected effects of the specific weight percentages of the components of the permeation enhancer mixture are believed to be due, in part, to the solubility of the monoglyceride in the lactic acid ester. It is known that monoglycerides by themselves are effective permeation enhancers. The enhancement occurs by the solubilization of the monoglyceride in the lipid layer of the skin. The solubilization of the monoglyceride in the lipid layer increases as a function of lactic acid ester concentration. […] Thus, the amount of GML dissolved, ie, free GML, is dictated by and proportional to the lauryl lactate loading in the polymer.

[2] = aqueous solution 25 mg/mL, 0.05 M isotonic phosphate buffer, 20 μm polybutadiene film, cited from earlier work
[3] = type: in vivo, human; details: after the initial application; transdermal with permeation enhancing mixture
Method: Therapeutic blood levels can be achieved within approximately 6-10 hours after the initial application, and blood concentrations are maintained with subsequent system applications. The range of desired and achievable system permeation rates of oxybutynin, arriving through the skin from a limited area, is 1-20 mg over a period of 24 hours. The system application is easily adapted for shorter or longer duration treatments, but generally 72 hours is the duration for a single application.

[4] = in vitro permeation of oxybutynin through human epidermis at 35° C., EVA 40 systems on horizontal permeation cells (Examples 4-5); type: in vitro ADME; details: R- or S-oxybutynin versus racemate
Method: Oxybutynin, glycerol monolaurate and lauryl lactate were then added.
When EVA 40 was used the mixture was blended, cooled and calendered to a 5 mil thick film. This film was then laminated to an acrylic contact adhesive (MSP041991P, 3M) on one side and Medpar® backing (3M) on the opposite side. The laminate was then cut into 2.54 cm^2 circles using a stainless steel punch. Circular pieces of human-epidermis were mounted on horizontal permeation cells with the stratum corneum facing the donor compartment of the cell. The release liner of the system was then removed and the system was centered over the stratum corneum side of the epidermis.

Wt % GML in solution ([1]; 12% lauryl lactate in EVA 40): 4.2%
Wt % GML in solution ([1]; 20% lauryl lactate in EVA 40): 7.0%
Wt % GML in solution ([1]; 27% lauryl lactate in EVA 40): 9.5%
Wt % GML in solution ([1]; 30% lauryl lactate in EVA 40): 10.5%
solubility in EVA 40 matrix ([1]; EVA 40 matrix): practically insoluble
solubility of glycerol monolaurate in lauryl lactate ([1]; solution stirred): 350 mg/g of solution
Structure (SMILES): CCCCCCCCCCCC(=O)OCC(O)CO (centres unmarked) [GML, glycerol monolaurate]

Structure (SMILES): CCN(CC)CC#CCOC(=O)C(O)(c1ccccc1)C1CCCCC1 (centres unmarked) [Oxybutynin]
in vitro release rate (per area) [2]: ~10 μg/cm^2.hr
in vitro release rate (amount over 24 hours) ([2]; through a 49 cm^2 area): approximately 12 mg over 24 hours
time to therapeutic blood levels [3]: 6 to 10 h

Structure (SMILES): CCN(CC)CC#CCOC(=O)[C@](O)(c1ccccc1)C1CCCCC1 [R-oxybutynin]
flux of enantiomer relative to racemate, in words [4]: approximately equivalent to that of the racemate

Structure (SMILES): CCN(CC)CC#CCOC(=O)[C@@](O)(c1ccccc1)C1CCCCC1 [S-oxybutynin]
flux of enantiomer relative to racemate, in words [4]: approximately equivalent to that of the racemate
